Experimental data reported in PubChem BioAssay (NCI).
Values joined by “and” are separate entries in the source; they are usually repeats but may differ in a detail not shown here. Equal entries are not always repeated.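 In this assay, cells in 96-well plates receive the compound at five concentrations for 48 hours. Endpoints are linearly interpolated between the surrounding concentrations. GI50 is the concentration that inhibits growth by half. The concentration for full growth arrest is given as TGI.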

Columns and labels:
Test in all cases: NCI-60 cell line screen, 48 h
786-0 renal = test system: 786-0 renal
A498 renal = test system: A498 renal
HCT-15 colon = test system: HCT-15 colon
HL-60(TB) leukemia = test system: HL-60(TB) leukemia
HOP-92 NSCLC = test system: HOP-92 NSCLC
HS 578T breast = test system: HS 578T breast
NCI-H23 lung = test system: NCI-H23 lung
OVCAR-3 ovarian = test system: OVCAR-3 ovarian
U251 CNS = test system: U251 CNS
UACC-257 melanoma = test system: UACC-257 melanoma

SMILES	TGI (786-0 renal)	TGI (A498 renal)	TGI (HCT-15 colon)	TGI (HL-60(TB) leukemia)	TGI (HOP-92 NSCLC)	TGI (HS 578T breast)	TGI (NCI-H23 lung)	TGI (OVCAR-3 ovarian)	TGI (U251 CNS)	TGI (UACC-257 melanoma)	GI50 (HL-60(TB) leukemia)	GI50 (HS 578T breast)	GI50 (786-0 renal)	GI50 (A498 renal)	GI50 (HCT-15 colon)	GI50 (HOP-92 NSCLC)	GI50 (NCI-H23 lung)	GI50 (OVCAR-3 ovarian)	GI50 (U251 CNS)	GI50 (UACC-257 melanoma)
O=c1ccs[nH]1	21.4 µM	99.6 µM	33.8 µM	25 µM	32.2 µM	49.7 µM	43.7 µM	21.7 µM	21.4 µM	33.2 µM	–	–	–	–	–	–	–	–	–	–
CCOC(=O)NC1C2CC(=O)OC(O2)C1OC(C)=O (centres undefined)	> 100 µM	> 100 µM	> 100 µM	> 100 µM	> 100 µM	> 100 µM	> 100 µM	> 100 µM	> 100 µM	> 100 µM	> 100 µM	> 100 µM	–	–	–	–	–	–	–	–
C[C@]12CC[C@@H]3c4cc(-c5ccc(F)cc5)c(O)cc4CC[C@H]3[C@@H]1CC[C@@H]2O	27.7 µM	12.2 µM	18.8 µM	28.5 µM	23.6 µM	22.4 µM	37.8 µM	20.9 µM	17.9 µM	29.6 µM	8.17 µM	4.84 µM	11900 nM	3.39 µM	5.61 µM	10600 nM	13.8 µM	4020 nM	5540 nM	15.3 µM
N#Cc1ccc2c(c1)C(=O)c1c-2n(CCCCl)c(=O)c2cc([N+](=O)[O-])ccc12	7.88 µM	55.3 µM	> 100 µM	29.9 µM	23.1 µM	> 100 µM	17.6 µM	> 100 µM	16.4 µM	> 100 µM	11.4 µM	41 µM	2460 nM	22.8 µM	58.4 µM	5060 nM	4.81 µM	8770 nM	1630 nM	> 100 µM
NC1CCC(Nc2nc(NCc3ccc(-c4ccccc4O)nc3)c3ncn(C4CCCC4)c3n2)CC1 (centres undefined)	1.06 µM	0.0656 µM	1.14 µM	–	0.077 µM	1.34 µM	0.0664 µM	0.0899 µM	0.321 µM	0.0729 µM	< 0.01 µM	< 0.011 µM	29.3 nM	0.0233 µM	0.21 µM	20 nM	0.0214 µM	28.8 nM	29.4 nM	0.0227 µM
C[C@]12CC[C@H](OC3OC(CO)C(O)C(O)C3O)C[C@H]1CC[C@@H]1[C@@H]2CC[C@]2(C)[C@@H](C3=CCOC3=O)CC[C@]12O (some centres undefined)	> 100 µM	21.1 µM and > 100 µM	50 µM and > 100 µM	28 µM and > 100 µM	31.1 µM and > 100 µM	> 100 µM	50 µM and > 100 µM	50 µM and > 100 µM	47.2 µM and > 100 µM	50 µM and > 100 µM	> 100 µM	–	15400 nM	> 100 µM	> 100 µM	> 100000 nM	> 100 µM	42100 nM and > 100000 nM	–	21.9 µM and > 100 µM
O=C(O)CCCSc1ccccc1	> 100 µM	> 100 µM	> 100 µM	> 100 µM	> 100 µM	> 100 µM	> 100 µM	> 100 µM	> 100 µM	> 100 µM	–	–	–	–	–	–	–	–	–	–
COc1ccc(-c2cc(-c3ccc(Cl)cc3)nc(SCCCC(=O)NO)n2)cc1	4.52 µM	3.28 µM	1.7 µM	> 23 µM	5.07 µM	11.2 µM	7.06 µM	2.11 µM	> 22.5 µM	10.4 µM	1.65 µM	2.08 µM	594 nM	1.38 µM	0.413 µM	1800 nM	1.43 µM	406 nM	753 nM	2.31 µM
COc1ccc(-c2oc(=O)ccc2-c2cc(OC)c(OC)c(OC)c2)cc1O	> 75.7 µM	28.1 µM	> 100 µM	2.03 µM	> 80.4 µM	> 29.4 µM	> 100 µM	3.55 µM	> 100 µM	> 100 µM	0.407 µM	1.51 µM	2620 nM	2.57 µM	0.769 µM	8610 nM	3.91 µM	463 nM	1100 nM	9.87 µM
CNC(=S)NC(=O)c1c(Cl)n(C(=O)OC(C)(C)C)c2ccccc12	> 100 µM	> 100 µM	> 100 µM	> 100 µM	85.1 µM	> 100 µM	> 100 µM	> 100 µM	> 100 µM	> 100 µM	79.7 µM	45.8 µM	91100 nM	51.5 µM	86 µM	15100 nM	53.1 µM	38100 nM	53600 nM	94.5 µM
CS(=O)(=O)CCNCc1ccc(-c2ccc3ncnc(Nc4ccc(OCc5ccccc5)c(Br)c4)c3c2)o1	10.2 µM	16.3 µM	14.7 µM	15.9 µM	12.5 µM	15.9 µM	> 25 µM	> 25 µM	> 23 µM	9.3 µM	6.81 µM	5.08 µM	4690 nM	4.35 µM	4.51 µM	3490 nM	10.5 µM	9220 nM	7120 nM	4.77 µM
CCN(Cc1ccccc1)c1ccc(CO)c(Cl)c1	39.3 µM	0.169 µM	> 100 µM	46.7 µM	15.3 µM	> 84.9 µM	> 86 µM	3.62 µM	50.1 µM	0.316 µM	11.1 µM	23.2 µM	12000 nM	0.042 µM	13.8 µM	1670 nM	9.44 µM	658 nM	1000 nM	0.131 µM
C=C(C)[C@@H]1CC[C@]2(C(=O)O)CC[C@]3(C)[C@H](CC[C@@H]4[C@@]5(C)CCC(NC(=O)c6cccc(OC(C)=O)c6OC(C)=O)C(C)(C)[C@@H]5CC[C@]43C)[C@@H]12 (some centres undefined)	3.47 µM	1.97 µM	3.73 µM	4.52 µM	2.25 µM	4.28 µM	4.62 µM	3.26 µM	14.5 µM	0.78 µM	1.27 µM	0.566 µM	661 nM	0.644 µM	0.418 µM	439 nM	0.615 µM	1040 nM	520 nM	0.209 µM
COc1ccc(NC([Se])=NC23CC4CC(CC(C4)C2)C3)cc1	4.22 µM	4.75 µM	11.1 µM	5.91 µM	14.2 µM	7.89 µM	3 µM	3.21 µM	4.91 µM	5.44 µM	2.15 µM	2.08 µM	1780 nM	1.32 µM	1.57 µM	2340 nM	0.456 µM	1390 nM	1270 nM	2.03 µM
COC(=O)c1cc2c3ccccc3n3c(=O)c4cc5ccccc5nc4c(n1)c23	> 100 µM	> 100 µM	> 100 µM	> 100 µM	> 100 µM	> 100 µM	> 100 µM	> 100 µM	> 100 µM	> 100 µM	> 100 µM	> 100 µM	> 100000 nM	> 100 µM	> 100 µM	> 100000 nM	> 100 µM	> 100000 nM	> 100000 nM	> 100 µM
c1cc(N2CCCN(c3ccc(C4=NCCCN4)cc3)CC2)ccc1C1=NCCCN1	> 100 µM	> 100 µM	> 100 µM	> 100 µM	> 100 µM	> 100 µM	> 100 µM	> 100 µM	> 100 µM	> 100 µM	> 100 µM	77.7 µM	> 100000 nM	2.72 µM	> 100 µM	> 100000 nM	> 100 µM	> 100000 nM	65900 nM	> 100 µM
COc1cc(-c2ccc(-c3ccc(C(=N)N)nc3)s2)cc(OC)c1OC	3.93 µM	18.2 µM	6.41 µM	4.21 µM	8.37 µM	8.52 µM	22.6 µM	6.35 µM	3.53 µM	4.07 µM	1.87 µM	2.59 µM	2120 nM	4.9 µM	2.18 µM	1910 nM	6.4 µM	2600 nM	1740 nM	2.15 µM
C=C1C(C2(C)C(OC(C)=O)CC(=O)OC(C)(COC(C)=O)C2CC(=O)OC)C(OC=O)C(OC(=O)C(O)C(C)CC)C2(C)C(c3ccoc3)CC(=O)C12O (centres undefined)	> 100 µM	> 29.3 µM	> 100 µM	0.414 µM	> 100 µM	> 100 µM	> 100 µM	> 100 µM	> 100 µM	> 100 µM	–	–	–	–	–	–	–	–	–	–
CCN(CC)CCC(=O)c1ccc(C)cc1	34.3 µM	67.2 µM	33.6 µM	> 100 µM	36 µM	> 100 µM	48.1 µM	33.1 µM	> 100 µM	38.9 µM	–	–	–	–	–	–	–	–	–	–
C=C1C(=O)O[C@H]2[C@H]1CC/C(COC(=O)c1cc3ccccc3o1)=C\CC[C@@]1(C)O[C@@H]21	3.45 µM	26 µM	2.86 µM	3.68 µM	3.1 µM	10.9 µM	4.75 µM	1.72 µM	3.16 µM	3.04 µM	1.22 µM	2.91 µM	1810 nM	12.9 µM	1.07 µM	1440 nM	1.98 µM	485 nM	1630 nM	1.52 µM
Cc1occc1C(=S)Nc1ccc(Cl)c(C(=O)OC(C(C)C)C(C)C)c1	30.9 µM	27.8 µM	33.7 µM	29.8 µM	22.6 µM	48.5 µM	23 µM	28.3 µM	34.1 µM	19.2 µM	–	–	–	–	–	–	–	–	–	–
O=c1cc(N2CCN(CCCCCOc3cc(O)c4c(=O)cc(-c5ccccc5)oc4c3)CC2)c2ccccc2o1	> 100 µM	> 100 µM	> 100 µM	> 100 µM	> 100 µM	> 100 µM	0.475 µM	> 100 µM	> 100 µM	> 100 µM	17.5 µM	> 100 µM	6920 nM	> 100 µM	> 100 µM	26100 nM	0.218 µM	> 100000 nM	> 100000 nM	> 100 µM
C=C1C(=O)OC2C1CCC(C)C1C=CC(=O)C12C (centres undefined)	4.19 µM	26.7 µM	4.11 µM	4.85 µM	13.3 µM	15.4 µM	10.2 µM	3.37 µM	29.5 µM	4.61 µM	–	–	–	–	–	–	–	–	–	–
CCCN(CCC)c1ccc(/C=C/c2ccc3cc(OCC)ccc3n2)cc1	> 100 µM	> 100 µM	> 100 µM	> 100 µM	> 100 µM	> 100 µM	> 100 µM	> 100 µM	> 100 µM	> 100 µM	20.3 µM	> 100 µM	> 100000 nM	> 100 µM	9.7 µM	> 100000 nM	36.7 µM	> 100000 nM	48500 nM	> 100 µM
CC(=C/C=C/C=C(C)\C=C\C=C(\C)C(=O)O)/C=C/C=C(/C)C(=O)O	> 100 µM	> 100 µM	> 100 µM	> 100 µM	> 100 µM	> 100 µM	> 100 µM	> 100 µM	> 100 µM	> 100 µM	–	–	–	–	–	–	–	–	–	–
Cc1nc2sc(C(=O)Nc3cccc4ccccc34)c(N)c2cc1C(O)c1ccccc1 (centres undefined)	9.69 µM	0.0636 µM	11.1 µM	0.194 µM	18.8 µM	0.693 µM	15.3 µM	0.0976 µM	13.5 µM	26.4 µM	0.0376 µM	0.0306 µM	123 nM	0.0202 µM	0.0388 µM	2110 nM	0.104 µM	31.7 nM	49.9 nM	1.5 µM
